# Measured values reported in patent US11052154B2, “Ras protein degradation inducing molecule and pharmaceutical composition” (Tokyo University of Science Foundation, priority 2016, dated 2021).
# Key:
# [1] = biological target: T1, G12D mutant K-Ras protein (Homo sapiens, UniProt P01116, G12D); assay: Degradation (knockdown) of G12D mutant K-Ras protein forcibly expressed in HeLa cells, FACS analysis; type: cell-based
# T1 construct: expressed in transfected cells; host or cells: HeLa
# Method: HeLa cells into which the plasmid had been introduced were seeded in a 24-well plate at a cell density of 4×10^4 cells/well, and then cultured under conditions of 37° C. and 5 vol % CO2 for 40 hours.
# DMSO was used as a control.
# [2] = biological target: T2, endogenous wild-type H-Ras protein (Homo sapiens, UniProt P01112); assay: Degradation of endogenous wild-type H-Ras protein in HeLa cells, Western blot analysis; type: cell-based; settings: 48 hours after addition, vs control (DMSO), FIG. 5
# T2 construct: an endogenous wild-type K-Ras protein and wild-type H-Ras protein; endogenous in cells; host or cells: HeLa
# Method: In Example 6, degradation (knockdown) of an endogenous wild-type K-Ras protein and wild-type H-Ras protein in HeLa cells to which TUS-007 had been added was evaluated by Western blot analysis.
# HeLa cells were seeded in a 24-well plate at a cell density of 8×10^4 cells/well, and then cultured under conditions of 37° C. and 5 vol % CO2 for 16 hours.
# After 16 hours from cell seeding, TUS-007 was added to HeLa cells as follows. As a medium, a serum-free medium (37° C.) in which 1 mass % L-glutamine solution (Sigma-Aldrich) was added to D-MEM (high D-glucose, phenol red, sodium pyruvate (Wako Pure Chemical Industries, Ltd.)) was used. It is noted that the L-glutamine solution was added immediately before use. A DMSO solution containing TUS-007 was mixed with the medium so that the concentration of DMSO was 1 vol %, and added to each well at 500 μL/well, and cultured under conditions of 37° C. and 5 vol % CO2. As a control, DMSO was used. […]
# After electrophoresis, proteins were transferred to a PVDF membrane (Immobion™-P, Millipore) under conditions of 100 V and 2 hours using a tank-type blotting device and a transfer buffer (25 mM Tris-HCl, 195 mM glycine, 0.01% SDS, 15% methanol). […] Subsequently, the membrane was treated with a chemiluminescence reagent Immobilon™ Western (Millipore), and then chemiluminescence was detected using a lumino image analyzer LAS-3000 (FUJIFILM Corporation). […]
# T1 sequence (P01116 1-188 isoform P01116-2 G12D): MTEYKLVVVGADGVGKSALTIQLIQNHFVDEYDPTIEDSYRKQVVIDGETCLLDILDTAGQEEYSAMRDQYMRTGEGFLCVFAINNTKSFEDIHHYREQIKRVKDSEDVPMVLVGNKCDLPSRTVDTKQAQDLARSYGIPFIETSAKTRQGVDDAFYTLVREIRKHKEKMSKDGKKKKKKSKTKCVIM
# T2 sequence (P01112 whole entry): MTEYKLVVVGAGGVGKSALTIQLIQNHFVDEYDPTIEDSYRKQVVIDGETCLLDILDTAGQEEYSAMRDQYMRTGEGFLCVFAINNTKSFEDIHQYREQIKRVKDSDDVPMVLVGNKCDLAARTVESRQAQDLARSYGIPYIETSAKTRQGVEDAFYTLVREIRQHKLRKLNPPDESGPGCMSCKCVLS
structure (smiles),measurement,setting,value
CCC(C)[C@H](NC(=O)CCCCCCNC(=O)[C@H](CC(C)C)NC(=O)CNC(=O)c1cc(Cl)ccc1Cl)C(=O)Nc1ccc2[nH]c(Cc3c[nH]c4ccccc34)nc2c1 (stereo in doubt) [TUS-007],degradation of the G12D mutant K-Ras protein when both TUS-007 and MLN2238 were added,"[1]; HeLa cells, MLN2238 co-added, compared with TUS-007 alone, FIG. 3",G12D mutant and G12V mutant K-Ras protein degradation was inhibited
same,degradation (knockdown) of the G12D mutant K-Ras protein (shift of GFP/DsRed ratio graph),"[1]; HeLa cells, vs control (DMSO), FIG. 3",degradation of the G12D mutant and the G12V mutant K-Ras protein was induced
same,"comparison of degradation induction among wild-type, G12D mutant and G12V mutant K-Ras protein",[1]; from the results of FIGS. 1 and 3,excellent in inducing the degradation of the G12D mutant K-Ras protein
same,amount of the endogenous wild-type H-Ras protein (Western blot),[2],the amount of the endogenous wild-type K-Ras protein and wild-type H-Ras protein was reduced
